What was measured:
[1] = system: T. rubrum; test: Relative growth of pre-germinated arthrospores in ESD broth tubes; assay type: cell-based; parameters: key: −: - (no growth); relative scale from - (no growth) to +++ (maximal growth); relative scale from - (no growth) to +++ (maximal growth); +++ (maximal growth); settings: clotrimazole control, 20 μ/ml per tube, 30° C.
Experimental: (§1) Purified arthrospore suspensions of T. mentagrophytes or T. rubrum (prepared as per L. R. Wright et al., 1983, J. Antimicrob. Chemotherapy 12:317-327), diluted to a concentration of 1×10^6 cfu/ml in Emmon's modification of Sabouraud Dextrose Broth (ESD—R. Atlas, 1997, Handbook of microbiological media, CRC Press Inc., Boca Raton, Fla.), are incubated for 6 hours at 26° C. or 30° C., respectively, to pre-germinate spores. Enzyme preparations of chitinase (Sigma Cat. No. C-1525) and β1-1,3-glucanase (Sigma Cat. No. L-2524) are diluted into 3 ml volumes of ESD in capped glass tubes, to final concentrations of each enzyme ranging from 0 to 100 ppm. Clotrimazole controls are also prepared, to a final concentration of 20 μ/ml per tube.
(§2) Each tube is then inoculated with 10 μl (1×10^4 cfu) of either the T. mentagrophytes or T. rubrum pre-germinated arthrospore suspension, followed by incubation on a shaker at 200 rpm, at 26° C. or 30° C., respectively, for a total of 41 hours.

[2] = system: T. mentagrophytes; test: as above; assay type: cell-based; parameters: key: −: - (no growth); relative scale from - (no growth) to +++ (maximal growth); relative scale from - (no growth) to +++ (maximal growth); +++ (maximal growth); settings: clotrimazole control, 20 μ/ml per tube, 26° C.
Experimental: as §1, §2

Clc1ccccc1C(c1ccccc1)(c1ccccc1)n1ccnc1 [clotrimazole]
−: Growth, T. rubrum, 18 hours ([1]; 18 hours) | Growth, T. rubrum, 41 hours ([1]; 41 hours) | Growth, T. mentagrophytes, 18 hours ([2]; 18 hours) | Growth, T. mentagrophytes, 41 hours ([2]; 41 hours)

Source: US20030129180A1, “Products and methods for treating microbial infections” (The Proctor & Gamble Company, priority 2001, published 2003)
